Assay results published in US20060252807A1, “Novel ortho-terphenyl inhibitors of p38 kinase and methods of treating inflammatory disorders” (Kalypsys, Inc., priority 2005, published 2006).
pIC50: −log10 of the molar value.

Target: T1, active p38 alpha enzyme (Upstate Biotechnology) (Homo sapiens, UniProt Q16539)
T1 construct: purchased Upstate Biotechnology
Assay: p38α biochemical assay (ATP turnover, luminescent detection, Cambrex PKlight)
Settings: p38α biochemical assay, Table 1 Biological Activity
Protocol: The p38α biochemical assay employed is based on measurement of total ATP turnover following enzyme incubation with substrate in the presence of ATP with the use of a luminescent detection reagent (Cambrex PKlight). The assays were performed in 1536-well white opaque plates.
The final volume was 7.5005 μL as prepared prepared from the addition of 5 ul of kinase reaction (p38 alpah+MapkapK2+ATP) with 0.0005 μL compound dissolved in DMSO, and 2.5 ul of the detection reagent. Assay buffer contains the following reagents to give final concentration in the assay: 200 mM Tris, 100 mM MgCl2, 1.5 mM EGTA, 4 mM CaCl2, 20 mM MOPS, 1 mM EDTA, 1% glycerol, 0.1% B-Mecaptoethanol, and 1 mg/ml BSA. Test compounds are pinned using proprietary pintool technology (Kalypsys, Inc) and delivered as […] amounts into the 5 ul mixture of active p38 alpha enzyme (Upstate Biotechnology) and MapkapK2 (Upstate Biotechnology) whole protein as a substrate for phosphorylation in the presence of 1.4 uM final concentration ATP. Reactions are incubated at 30C for 2 hours and detection reagent is added in 2.5 ul/well amounts. Assay is read using a Perkin Elmer Viewlux.

T1 sequence (Q16539 whole entry): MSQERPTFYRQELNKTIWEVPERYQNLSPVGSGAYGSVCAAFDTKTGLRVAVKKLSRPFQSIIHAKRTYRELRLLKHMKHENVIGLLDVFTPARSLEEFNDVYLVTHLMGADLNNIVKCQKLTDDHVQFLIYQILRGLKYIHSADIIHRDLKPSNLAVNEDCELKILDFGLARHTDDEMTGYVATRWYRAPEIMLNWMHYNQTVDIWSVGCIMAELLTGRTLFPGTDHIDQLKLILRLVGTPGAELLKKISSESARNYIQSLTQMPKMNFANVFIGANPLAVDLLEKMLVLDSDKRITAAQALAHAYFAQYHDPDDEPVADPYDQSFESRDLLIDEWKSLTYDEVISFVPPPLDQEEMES

CC(C)NC(=O)c1csc(-c2oc(CN3CCN(C(=O)CNC(=O)OC(C)(C)C)CC3)nc2-c2ccc(F)cc2)n1 [Example 438] and CC(=O)NCC(=O)N1CCN(Cc2nc(-c3ccc(F)cc3)c(-c3nc(C(=O)NC(C)C)cs3)o2)CC1 [Example 347] cannot be ordered by pIC50: < 6.00 for the first, < 6.00 for the second.

CC(C)NC(=O)c1csc(-c2oc(CNC(=O)c3cnc[nH]3)nc2-c2ccc(F)cc2)n1 [Example 105] and CC(C)NC(=O)c1csc(-c2oc(CNC(=O)c3cscn3)nc2-c2ccc(F)cc2)n1 [Example 119] cannot be ordered by pIC50: ≥ 6.00 for the first, ≥ 6.00 for the second.

CC(C)NC(=O)c1csc(-c2oc(CN3CCN(C(=O)c4ccccc4-c4ccccc4)CC3)nc2-c2ccc(F)cc2)n1 [Example 504] and CC(C)NC(=O)c1csc(-c2oc(CN3CCN(C(=O)C(C)c4cccc(C(=O)c5ccccc5)c4)CC3)nc2-c2ccc(F)cc2)n1 (stereo not shown) [Example 567] cannot be ordered by pIC50: ≥ 6.00 for the first, < 6.00 for the second.

CC(C)NC(=O)c1csc(-c2c(-c3ccc(F)cc3)noc2CNC(=O)C(O)CCl)n1 (stereo not shown) [Example 590] and CC(=O)NCC(=O)NCc1onc(-c2ccc(F)cc2)c1-c1nc(C(=O)NC(C)C)cs1 [Example 585] cannot be ordered by pIC50: ≥ 6.00 for the first, < 6.00 for the second.

CC(C)NC(=O)c1csc(-c2oc(CN3CCN(C(=O)c4ccc(Cl)c([N+](=O)[O-])c4)CC3)nc2-c2ccc(F)cc2)n1 [Example 511] and CC(C)NC(=O)c1csc(-c2oc(CN3CCN(C(=O)c4ccc(F)c(F)c4)CC3)nc2-c2ccc(F)cc2)n1 [Example 398] cannot be ordered by pIC50: < 6.00 for the first, < 6.00 for the second.

CC(C)NC(=O)c1csc(-c2oc(CNC(=O)C(Cc3ccc(O)cc3)NC(=O)OC(C)(C)C)nc2-c2ccc(F)cc2)n1 (stereo not shown) [Example 334] and CC(C)CC(NC(=O)OC(C)(C)C)C(=O)NCc1nc(-c2ccc(F)cc2)c(-c2nc(C(=O)NC(C)C)cs2)o1 (stereo not shown) [Example 329] cannot be ordered by pIC50: ≥ 6.00 for the first, < 6.00 for the second.

CCOc1ccc2ccccc2c1C(=O)NCc1onc(-c2ccc(F)cc2)c1-c1nc(C(=O)NC(C)C)cs1 [Example 772] and CC(C)NC(=O)c1csc(-c2c(-c3ccc(F)cc3)noc2CNC(=O)c2ccc([N+](=O)[O-])cc2Cl)n1 [Example 747] cannot be ordered by pIC50: < 6.00 for the first, ≥ 6.00 for the second.

CC(C)NC(=O)c1csc(-c2oc(CN3CCN(C(=O)c4ccccn4)CC3)nc2-c2ccc(F)cc2)n1 [Example 351] and COc1ccc(Cl)cc1C(=O)N1CCN(Cc2nc(-c3ccc(F)cc3)c(-c3nc(C(=O)NC(C)C)cs3)o2)CC1 [Example 475] cannot be ordered by pIC50: < 6.00 for the first, < 6.00 for the second.

CC(C)NC(=O)c1csc(-c2oc(CNC(=O)C3CCCN3C(=O)OCc3ccccc3)nc2-c2ccc(F)cc2)n1 (stereo not shown) [Example 327] and CC(C)NC(=O)c1csc(-c2oc(CNC(=O)c3ccc(F)cc3Cl)nc2-c2ccc(F)cc2)n1 [Example 199] cannot be ordered by pIC50: < 6.00 for the first, ≥ 6.00 for the second.

CC(C)NC(=O)c1csc(-c2oc(CNC(=O)C(NC(=O)OC(C)(C)C)C(C)C)nc2-c2ccc(F)cc2)n1 (stereo not shown) [Example 298] and CC(C)NC(=O)c1csc(-c2oc(CNC(=O)c3cc(O)c(O)c(O)c3)nc2-c2ccc(F)cc2)n1 [Example 190] cannot be ordered by pIC50: < 6.00 for the first, ≥ 6.00 for the second.

COc1cc(C(=O)NCc2nc(-c3ccc(F)cc3)c(-c3nc(C(=O)NC(C)C)cs3)o2)cc(OC)c1OC [Example 285] and CC(C)NC(=O)c1csc(-c2c(-c3ccc(F)cc3)noc2CNC(=O)c2cc(F)ccc2[N+](=O)[O-])n1 [Example 711] cannot be ordered by pIC50: < 6.00 for the first, < 6.00 for the second.

Same assay, conditions: p38α kinase; Table 1 Biological Activity

CC(C)NC(=O)c1csc(-c2oc(CN3CCSC3)nc2-c2ccc(F)cc2)n1 [Example 1196] and CC(C)NC(=O)c1csc(-c2oc(CN3CCCC(CO)C3)nc2-c2ccc(F)cc2)n1 (stereo not shown) [Example 1211] cannot be ordered by pIC50: < 6.00 for the first, < 6.00 for the second.

CC(C)NC(=O)c1csc(-c2oc(CNCc3ccc(F)cc3)nc2-c2ccc(F)cc2)n1 [Example 1104] and CC(C)NC(=O)c1csc(-c2oc(CNCc3ccccc3)nc2-c2ccc(F)cc2)n1 [Example 1084] cannot be ordered by pIC50: < 6.00 for the first, < 6.00 for the second.

C#CCN(C)Cc1onc(-c2ccc(F)cc2)c1-c1nc(C(=O)NC(C)C)cs1 [Example 1512] and CC(C)NC(=O)c1csc(-c2c(-c3ccc(F)cc3)noc2CN(C)C2CCCCC2)n1 [Example 1532] cannot be ordered by pIC50: < 6.00 for the first, < 6.00 for the second.

CC(C)NC(=O)c1csc(-c2oc(CNC3CCCCC3C)nc2-c2ccc(F)cc2)n1 (stereo not shown) [Example 1092] and CC(C)NC(=O)c1csc(-c2oc(CNC3CCCc4ccccc43)nc2-c2ccc(F)cc2)n1 (stereo not shown) [Example 1304] cannot be ordered by pIC50: < 6.00 for the first, < 6.00 for the second.

O=C(NCc1ccc(C(F)(F)F)cc1)c1csc(-c2c(-c3ccc(F)cc3)n[nH]c2C2CCNCC2)n1 [Example 2143] and Cc1ccccc1CNC(=O)c1csc(-c2c(-c3ccc(F)cc3)n[nH]c2C2CCNCC2)n1 [Example 2077] cannot be ordered by pIC50: < 6.00 for the first, < 6.00 for the second.

CC(C)NC(=O)c1csc(-c2oc(CN3CCCN(Cc4ccccc4)CC3)nc2-c2ccc(F)cc2)n1 [Example 1250] and CC(C)NC(=O)c1csc(-c2oc(CN[C@H](CO)Cc3ccccc3)nc2-c2ccc(F)cc2)n1 [Example 1144] cannot be ordered by pIC50: < 6.00 for the first, < 6.00 for the second.

CC(Cc1ccncc1)NC(=O)c1csc(-c2c(-c3ccc(F)cc3)n[nH]c2C2CCNCC2)n1 (stereo not shown) [Example 2098] and O=C(NCc1ccc2c(c1)OCO2)c1csc(-c2c(-c3ccc(F)cc3)n[nH]c2C2CCNCC2)n1 [Example 2119] cannot be ordered by pIC50: < 6.00 for the first, < 6.00 for the second.

Cc1nc(-c2ccc(F)cc2)c(-c2nc(C(=O)N3C(C)CCCC3C)cs2)s1 (stereo not shown) [Example 1858] and COC(=O)C1CCN(C(=O)c2csc(-c3sc(C)nc3-c3ccc(F)cc3)n2)CC1 [Example 1882] cannot be ordered by pIC50: < 6.00 for the first, < 6.00 for the second.

COc1cc2c(cc1OC)CN(C(=O)c1csc(-c3sc(C)nc3-c3ccc(F)cc3)n1)CC2 [Example 1946] and COc1ccncc1NC(=O)c1csc(-c2sc(C)nc2-c2ccc(F)cc2)n1 [Example 1975] cannot be ordered by pIC50: ≥ 6.00 for the first, ≥ 6.00 for the second.

CC(C)NC(=O)c1csc(-c2c(-c3ccc(F)cc3)noc2CNc2ccccc2F)n1 [Example 1638] and Cc1ccc(NCc2onc(-c3ccc(F)cc3)c2-c2nc(C(=O)NC(C)C)cs2)c(C)c1 [Example 1645] cannot be ordered by pIC50: < 6.00 for the first, < 6.00 for the second.

CC(C)NC(=O)c1csc(-c2c(-c3ccc(F)cc3)noc2CNCCN(C(C)C)C(C)C)n1 [Example 1469] and CCOc1ccccc1CNCc1onc(-c2ccc(F)cc2)c1-c1nc(C(=O)NC(C)C)cs1 [Example 1477] cannot be ordered by pIC50: < 6.00 for the first, < 6.00 for the second.

CC1=CCC(CCNCc2nc(-c3ccc(F)cc3)c(-c3nc(C(=O)NC(C)C)cs3)o2)C=C1 (stereo not shown) [Example 1113] and COc1cccc(CCNCc2nc(-c3ccc(F)cc3)c(-c3nc(C(=O)NC(C)C)cs3)o2)c1 [Example 1143] cannot be ordered by pIC50: < 6.00 for the first, < 6.00 for the second.

CC(=O)Nc1ccc(NCc2nc(-c3ccc(F)cc3)c(-c3nc(C(=O)NC(C)C)cs3)o2)cn1 [Example 1352] and Cc1c(F)cccc1NCc1nc(-c2ccc(F)cc2)c(-c2nc(C(=O)NC(C)C)cs2)o1 [Example 1329] cannot be ordered by pIC50: < 6.00 for the first, < 6.00 for the second.

CC(C)NC(=O)c1csc(-c2c(-c3ccc(F)cc3)n[nH]c2C2CCN(C(=O)c3ccc(F)cc3F)CC2)n1 [Example 873] and CC(C)NC(=O)c1csc(-c2c(-c3ccc(F)cc3)n[nH]c2C2CCN(C(=O)c3cccc(F)c3)CC2)n1 [Example 841] cannot be ordered by pIC50: < 6.00 for the first, < 6.00 for the second.

CC(C)NC(=O)c1csc(-c2c(-c3ccc(F)cc3)n[nH]c2C2CCN(C(=O)c3ccc(N(C)C=O)cc3)CC2)n1 [Example 924] and COc1ccc(C(=O)N2CCC(c3[nH]nc(-c4ccc(F)cc4)c3-c3nc(C(=O)NC(C)C)cs3)CC2)cc1 [Example 855] cannot be ordered by pIC50: < 6.00 for the first, < 6.00 for the second.

CC(C)NC(=O)c1csc(-c2c(-c3ccc(F)cc3)noc2CN2CCN(c3ccccn3)CC2)n1 [Example 1568] and CC(C)NC(=O)c1csc(-c2c(-c3ccc(F)cc3)n[nH]c2C2CCN(C(=O)c3ccccc3)CC2)n1 [Example 825] cannot be ordered by pIC50: < 6.00 for the first, ≥ 6.00 for the second.

CC(C)NC(=O)c1csc(-c2c(-c3ccc(F)cc3)n[nH]c2C2CCN(C(=O)c3c4ccccc4cc4ccccc34)CC2)n1 [Example 1017] and COc1ccc([N+](=O)[O-])c(C(=O)N2CCC(c3[nH]nc(-c4ccc(F)cc4)c3-c3nc(C(=O)NC(C)C)cs3)CC2)c1 [Example 979] cannot be ordered by pIC50: < 6.00 for the first, < 6.00 for the second.

Cc1nc(-c2ccc(F)cc2)c(-c2nc(C(=O)NCC(C)c3ccccc3)cs2)s1 (stereo not shown) [Example 1772] and CCCC(C)NC(=O)c1csc(-c2sc(C)nc2-c2ccc(F)cc2)n1 (stereo not shown) [Example 1722] cannot be ordered by pIC50: ≥ 6.00 for the first, < 6.00 for the second.

CCOC(=O)N1CCN(C(=O)c2csc(-c3sc(C)nc3-c3ccc(F)cc3)n2)CC1 [Example 1889] and Cc1nc(-c2ccc(F)cc2)c(-c2nc(C(=O)N3CCN(c4ccc(C#N)cn4)CC3)cs2)s1 [Example 1912] cannot be ordered by pIC50: < 6.00 for the first, < 6.00 for the second.

CC(C)NC(=O)c1csc(-c2c(-c3ccc(F)cc3)n[nH]c2C2CCN(C(=O)C(C)(C)O)CC2)n1 [Example 2166, 2-{3-(4-Fluoro-phenyl)-5-|1-(2-hydroxy-2-methyl-propionyl)-piperidin-4-yl|-1H-pyrazol-4-yl}-thiazole-4-carboxylic acid isopropylamide] and CC(C)NC(=O)c1csc(-c2c(-c3ccc(F)cc3)noc2CNC2CONC2=O)n1 (stereo not shown) [Example 1412] cannot be ordered by pIC50: ≥ 6.00 for the first, < 6.00 for the second.

Cc1nc(-c2ccc(F)cc2)c(-c2nc(C(=O)Nc3ccc(F)cc3C(F)(F)F)cs2)s1 [Example 2013] and CC(C)NC(=O)c1csc(-c2c(-c3ccc(F)cc3)noc2CNC(=O)C(C)c2cccc(C(=O)c3ccccc3)c2)n1 (stereo not shown) [Example 805] cannot be ordered by pIC50: < 6.00 for the first, < 6.00 for the second.
